# Data published in the supplement of paper PMC10307832.
# How the values were obtained:
# Experiment in all cases: relative viability (nuclei count vs DMSO), 5 days (fraction); higher = more cells survive
# [1] = compound: C1COCCN1CC2=CC(=O)C(=CO2)OCCCCCSC3=C4C=CC(=CC4=NC=C3)C(F)(F)F [EHT 1864] + C[C@]1(O)C[C@@H](c2nc(-c3ccc4ccc(-c5ccccc5)nc4c3)c3c(N)nccn32)C1 [Linsitinib] (partner 1 µM)
# Summary of the method: (§1)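 Cells from lung cancer lines were seeded into 1536-well plates and, one day later, dosed by pin tool. Treatments were either a single drug or a fixed dose of an anchor drug with five library-drug doses (not always all listed) in √10 steps. After 5 days, nuclei were stained in a one-step fixation (final 0.05% Triton X-100, 1% formaldehyde, 1 ug/ml Hoechst) and counted on 4× images, and relative viability is the treated-to-vehicle nuclei ratio, as the median of duplicate plates.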
# [2] = compound: C1COCCN1CC2=CC(=O)C(=CO2)OCCCCCSC3=C4C=CC(=CC4=NC=C3)C(F)(F)F [EHT 1864] + C[C@@H](Oc1cc(-c2cnn(C3CCNCC3)c2)cnc1N)c1c(Cl)ccc(F)c1Cl [Crizotinib] (partner 1 µM)
# Summary of the method: as §1
# [3] = compound: C1COCCN1CC2=CC(=O)C(=CO2)OCCCCCSC3=C4C=CC(=CC4=NC=C3)C(F)(F)F [EHT 1864] + Cc1cc(Nc2cc(N3CCN(C)CC3)nc(Sc3ccc(NC(=O)C4CC4)cc3)n2)n[nH]1 [Tozasertib] (partner 0.1 µM)
# Summary of the method: as §1
# [4] = compound: C1COCCN1CC2=CC(=O)C(=CO2)OCCCCCSC3=C4C=CC(=CC4=NC=C3)C(F)(F)F [EHT 1864] + COc1cccc2cc(-c3nc([C@H]4CC[C@H](C(=O)O)CC4)n4ncnc(N)c34)[nH]c12 [OSI-027] (partner 0.5 µM)
# Summary of the method: as §1
Cell Line,relative viability ([1]; first compound 0.04 µM),relative viability ([1]; first compound 0.1265 µM),relative viability ([1]; first compound 0.4 µM),relative viability ([1]; first compound 1.265 µM),relative viability ([1]; first compound 4 µM),relative viability ([2]; first compound 0.04 µM),relative viability ([2]; first compound 0.1265 µM),relative viability ([2]; first compound 0.4 µM),relative viability ([2]; first compound 1.265 µM),relative viability ([2]; first compound 4 µM),relative viability ([3]; first compound 0.04 µM),relative viability ([3]; first compound 0.1265 µM),relative viability ([3]; first compound 0.4 µM),relative viability ([3]; first compound 1.265 µM),relative viability ([3]; first compound 4 µM),relative viability ([4]; first compound 0.04 µM),relative viability ([4]; first compound 0.1265 µM),relative viability ([4]; first compound 0.4 µM),relative viability ([4]; first compound 1.265 µM),relative viability ([4]; first compound 4 µM)
NCI-H441,0.517,0.574,0.503,0.461,0.561,0.783,0.591,0.752,0.879,0.723,0.55,0.544,0.596,0.507,0.481,0.685,0.511,0.414,0.581,0.734
NCI-H1944,1.28,,1.21,1.25,1.25,1.18,,1.13,1.04,1.15,0.283,,0.277,0.234,0.292,0.44,,0.443,0.417,0.399
NCI-H23,0.522,,0.443,0.59,0.551,0.488,,0.513,0.496,0.5,0.397,0.372,0.373,0.291,0.367,0.511,0.352,0.673,0.523,0.563
HARA,0.963,0.928,1.08,0.983,1.01,0.964,1,1.08,1.04,0.902,0.118,0.127,0.132,0.098,0.117,0.433,0.201,0.516,0.454,0.435
NCI-H1792,0.514,0.376,0.556,0.57,0.628,0.982,0.852,0.972,0.895,1.04,,,,,,0.67,0.65,0.717,0.689,0.68
NCI-H1703,0.725,,0.931,0.789,0.647,0.69,0.534,0.545,0.598,0.487,,,,,,,,,,
NCI-H2342,,,,,,,,,,,0.541,0.394,0.452,0.491,0.533,0.529,0.555,0.576,0.573,0.636
CAL-12T,0.824,0.667,0.79,0.824,0.838,0.722,0.635,0.663,0.653,0.831,0.39,0.294,0.302,0.292,0.216,0.591,0.437,0.593,0.552,0.8
NCI-H727,0.272,0.366,0.349,,0.319,0.803,0.713,0.699,,0.786,0.574,0.573,0.611,0.503,0.592,0.525,0.532,0.592,0.576,0.61
NCI-H2085,0.87,0.816,0.883,0.91,0.787,0.71,0.764,0.846,0.762,0.778,0.8,,0.791,0.641,0.576,0.719,,0.772,0.719,0.812
NCI-H1395,1.02,0.982,0.957,1.16,1.02,,,,,,0.831,0.65,0.772,0.719,0.723,0.649,0.515,0.683,0.621,0.696
NCI-H1648,,,,,,,,,,,0.486,0.376,0.396,0.411,0.441,0.273,0.29,0.242,0.23,0.255
NCI-H460,0.76,0.603,0.747,0.624,0.845,0.805,0.85,0.769,0.888,0.799,0.398,0.453,0.384,0.174,0.152,0.678,0.576,0.649,0.621,0.552
A549,0.598,0.658,0.641,0.599,0.639,0.659,0.739,0.742,0.669,0.601,,,,,,,,,,
IA-LM,0.524,0.325,0.572,0.463,0.644,1.01,,0.754,,0.684,,,,,,,,,,
EKVX,0.886,0.976,1.04,1.08,1.02,1.05,0.721,0.857,0.947,0.855,0.4,0.371,0.369,0.351,0.349,0.705,0.68,0.698,0.711,0.839
ChaGo-K-1,,,,,,1.14,1.15,1.12,,1.01,0.215,0.221,0.228,0.207,0.204,0.512,0.476,0.7,0.562,0.517
NCI-H1755,0.983,0.907,0.956,0.927,0.962,0.891,0.833,0.794,0.814,0.845,0.606,0.51,0.483,0.487,0.536,0.779,0.619,0.691,0.619,0.618
NCI-H2228,0.655,0.635,0.802,0.661,0.478,0.523,0.479,0.509,0.341,0.361,0.335,0.332,0.209,0.204,0.16,0.637,0.48,0.666,0.522,0.588
NCI-H2087,0.88,0.865,0.796,0.729,0.68,0.872,0.662,0.698,0.737,0.753,0.373,,0.291,0.241,0.202,0.496,,0.578,0.496,0.586
